According to PMC6479946 (Molecules, 2019):

What was measured:
in vivo = conditions: rat plasma, n = 8, mean ± SD; for AUC(0-t) / AUC(0-inf) / CL/F / Cmax / k el / MRT / Tmax: male, Sprague-Dawley, rat, in vivo, po; for AUC(0-t): AUC(0-t) of HAR; for AUC(0-inf): AUC(0-∞) of HAR; for CL/F: CL/F of HAR; for Cmax: Cmax of HAR; for k el: Ke of HAR; for MRT: MRT of HAR; for Tmax: Tmax of HAR
Experimental: The analytes were separated on an ACQUITY UPLC BEH C18 column (2.1 mm × 50 mm, 1.7 μm, Waters, Milford, USA). […] The flow rate was 0.3 mL/min. The column and sample-tray temperature were kept at 40 °C and 4 °C, respectively. The injection volume was 5.0 μL using a partial loop with needle over fill mode.
The compound dependent parameters used for analysis were summarized in Supplementary materials Table S1.
A rapid and convenient precipitation method was used to prepare the plasma samples. A 100 μL aliquot of plasma sample was spiked with 100 μL of IS solution and 300 μL of methanol in a 1.5 mL centrifuge tube; subsequently, the mixtures were vortex-mixed for 30.0 s and then centrifuged at 1.5 × 10^4× g for 10 min at 4 °C. A 100 μL aliquot of supernatant was combined with 25.0 μL of 0.1% formic acid water in a clean centrifuge tube and then vortex-mixed for 30 s. A 5.0 μL aliquot of mixture was injected into the UPLC-MS/MS system for analysis.
Fifty-six pathogen-free male adult rats were randomly divided into seven groups with eight rats in each group for pharmacokinetic study. […] One group was intragastrically administered with MEM hydrochloride 5.0 mg/kg dissolved in ultrapure water, namely, MEM group. […] The blood samples were immediately centrifuged at 4.0 × 10^3× g at […] for 10 min, and 100 μL of the supernatant plasma was transferred into another new 1.5 mL centrifuge tube and stored at −20 °C until UPLC-MS/MS analysis.
All standard curves and quantitative data were processed by Agilent Mass Hunter Quantitative Analysis Workstation Software. […] All the pharmacokinetic parameters were processed using the non-compartmental pharmacokinetics data analysis software program PK solutions 2.0^TM (Summit Research Services, USA). […] The AUC(0-t) was obtained by the linear/logarithmic trapezoidal rule, and the area under the plasma concentration versus time curve from zero to infinity (AUC(0-∞)) was calculated by means of the trapezoidal rule with extrapolation to infinity with a terminal elimination rate constant. The Pearson correlation coefficient analysis was processed by IBM SPSS Statistics Version 21. A statistical analysis was performed using analysis of variance with α = 0.05 as the minimal level of significance.

[1] = oral administration of 40.0 mg/kg HAR; cited from earlier work
[2] = 20 mg/kg, oral HAR 20.0 mg/kg + MEM 5.0 mg/kg (HAR-L + MEM)
[3] = 20 mg/kg, oral HAR 20.0 mg/kg alone (HAR-L)
[4] = 40 mg/kg, oral HAR 40.0 mg/kg + MEM 5.0 mg/kg (HAR-M + MEM)
[5] = 40 mg/kg, oral HAR 40.0 mg/kg alone (HAR-M)
[6] = 80 mg/kg, oral HAR 80.0 mg/kg + MEM 5.0 mg/kg (HAR-H + MEM)
[7] = 80 mg/kg, oral HAR 80.0 mg/kg alone (HAR-H)
[8] = oral HAR 20.0 mg/kg + MEM 5.0 mg/kg (HAR-L + MEM)
[9] = oral HAR 20.0 mg/kg alone (HAR-L)
[10] = oral HAR 40.0 mg/kg + MEM 5.0 mg/kg (HAR-M + MEM)
[11] = oral HAR 40.0 mg/kg alone (HAR-M)
[12] = oral HAR 80.0 mg/kg + MEM 5.0 mg/kg (HAR-H + MEM)
[13] = oral HAR 80.0 mg/kg alone (HAR-H)

For `COc1ccc2c(c1)[nH]c1c(C)nccc12` [HAR, 7-methoxy-1-methyl-9H-pyrido [3,4-β] indole], the AUC(0-t) (in vivo; [2]) was 141 ± 56.7 ng·h/mL, the AUC(0-t) (in vivo; [3]) was 74.9 ± 36.3 ng·h/mL and the AUC(0-inf) (in vivo; [2]) was 158 ± 65.4 ng·h/mL. For the same compound, the AUC(0-inf) (in vivo; [3]) was 83.1 ± 38.9 ng·h/mL, the CL/F (in vivo; [2]) was 2630 mL/min/kg and the CL/F (in vivo; [3]) was 5380 mL/min/kg. The Cmax (in vivo; [2]) was 64.5 ± 14.7 ng/mL, the Cmax (in vivo; [3]) was 31.4 ± 16.3 ng/mL and the k el (in vivo; [2]) was 8.67e-05 s⁻¹. For the same compound, the k el (in vivo; [3]) was 0.000119 s⁻¹, the MRT (in vivo; [2]) was 4.02 ± 1.96 h and the MRT (in vivo; [3]) was 3.36 ± 1.38 h. For the same compound, the Tmax (in vivo; [2]) was 30 ± 16 min, the Tmax (in vivo; [3]) was 30 ± 16 min and the AUC(0-t) (in vivo; [4]) was 139 ± 40.6 ng·h/mL. The AUC(0-t) (in vivo; [5]) was 100 ± 44.8 ng·h/mL, the AUC(0-inf) (in vivo; [4]) was 153 ± 43.1 ng·h/mL and the AUC(0-inf) (in vivo; [5]) was 109 ± 47.9 ng·h/mL. For the same compound, the CL/F (in vivo; [4]) was 4630 mL/min/kg, the CL/F (in vivo; [5]) was 7180 mL/min/kg and the Cmax (in vivo; [4]) was 86.6 ± 31 ng/mL. For the same compound, the Cmax (in vivo; [5]) was 77 ± 53.8 ng/mL, the k el (in vivo; [4]) was 4.83e-05 s⁻¹ and the k el (in vivo; [5]) was 0.000132 s⁻¹. It also gave an MRT (in vivo; [4]) of 3.28 ± 1.02 h, an MRT (in vivo; [5]) of 2.83 ± 1.41 h and a Tmax (in vivo; [4]) of 14.4 ± 7.74 min. For the same compound, the Tmax (in vivo; [5]) was 21.9 ± 16.3 min, the AUC(0-t) (in vivo; [6]) was 1060 ± 540 ng·h/mL and the AUC(0-t) (in vivo; [7]) was 502 ± 180 ng·h/mL. It also gave an AUC(0-inf) (in vivo; [6]) of 1110 ± 508 ng·h/mL, an AUC(0-inf) (in vivo; [7]) of 587 ± 275 ng·h/mL and a CL/F (in vivo; [6]) of 1520 mL/min/kg. It also gave a CL/F (in vivo; [7]) of 2720 mL/min/kg, a Cmax (in vivo; [6]) of 755 ± 298 ng/mL and a Cmax (in vivo; [7]) of 368 ± 253 ng/mL. It also gave a k el (in vivo; [6]) of 0.000127 s⁻¹, a k el (in vivo; [7]) of 0.000116 s⁻¹ and an MRT (in vivo; [6]) of 2.88 ± 1.93 h. The MRT (in vivo; [7]) was 3.17 ± 1.48 h, the Tmax (in vivo; [6]) was 26.9 ± 37.8 min and the Tmax (in vivo; [7]) was 20.6 ± 11.2 min. For the same compound, the “Ka of HAR” value (in vivo; [8]) was 1.91 ± 2.46 h⁻¹, the “T1/2a of HAR” value (in vivo; [8]) was 94.2 ± 137 min and the “T1/2e of HAR” value (in vivo; [8]) was 2.89 ± 2.26 h. The “T1/2d of HAR” value (in vivo; [8]) was 1.22 ± 1.24 h, the “Vd of HAR” value (in vivo; [8]) was 59.0 ± 35.1 (L/kg) × 10 and the “Ka of HAR” value (in vivo; [9]) was 1.66 ± 2.27 h⁻¹. For the same compound, the “T1/2a of HAR” value (in vivo; [9]) was 77.4 ± 75 min, the “T1/2e of HAR” value (in vivo; [9]) was 2.05 ± 1.11 h and the “T1/2d of HAR” value (in vivo; [9]) was 2.14 ± 2.57 h. For the same compound, the “Vd of HAR” value (in vivo; [9]) was 80.3 ± 39.2 (L/kg) × 10, the “Ka of HAR” value (in vivo; [10]) was 1.52 ± 1.08 h⁻¹ and the “T1/2a of HAR” value (in vivo; [10]) was 70.8 ± 73.2 min. The “T1/2e of HAR” value (in vivo; [10]) was 4.33 ± 1.31 h, the “T1/2d of HAR” value (in vivo; [10]) was 2.33 ± 2.71 h and the “Vd of HAR” value (in vivo; [10]) was 172 ± 61.6 (L/kg) × 10. The “Ka of HAR” value (in vivo; [11]) was 2.69 ± 2.60 h⁻¹, the “T1/2a of HAR” value (in vivo; [11]) was 31.7 ± 28.7 min and the “T1/2e of HAR” value (in vivo; [11]) was 2.28 ± 1.86 h. For the same compound, the “T1/2d of HAR” value (in vivo; [11]) was 0.960 ± 0.734 h, the “Vd of HAR” value (in vivo; [11]) was 136 ± 105 (L/kg) × 10 and the “Ka of HAR” value (in vivo; [12]) was 2.93 ± 2.06 h⁻¹. For the same compound, the “T1/2a of HAR” value (in vivo; [12]) was 21.4 ± 13.7 min, the “T1/2e of HAR” value (in vivo; [12]) was 3.21 ± 3.17 h and the “T1/2d of HAR” value (in vivo; [12]) was 1.40 ± 1.74 h. The “Vd of HAR” value (in vivo; [12]) was 60.3 ± 89.6 (L/kg) × 10, the “Ka of HAR” value (in vivo; [13]) was 2.80 ± 2.74 h⁻¹ and the “T1/2a of HAR” value (in vivo; [13]) was 36.3 ± 32.8 min. The “T1/2e of HAR” value (in vivo; [13]) was 2.35 ± 1.44 h, the “T1/2d of HAR” value (in vivo; [13]) was 1.36 ± 1.37 h and the “Vd of HAR” value (in vivo; [13]) was 51.4 ± 33.1 (L/kg) × 10. For the same compound, the “maximum peak concentration (Cmax) of HAR” value [1] was 67.1 ± 34.3 ng/mL.
